Test results published in paper PMC2719696, “Kinetics and Cellular Site of Glycolipid Loading Control the Outcome of Natural Killer T Cell Activation” (Immunity, 2009).

Biological target: T1, mCD1d (Mus musculus, UniProt P11609)
T1 construct: host or cells: JAWS II (C57BL/6.Trp53-/- derived dendritic cell line)
T1 sequence (P11609 22-336): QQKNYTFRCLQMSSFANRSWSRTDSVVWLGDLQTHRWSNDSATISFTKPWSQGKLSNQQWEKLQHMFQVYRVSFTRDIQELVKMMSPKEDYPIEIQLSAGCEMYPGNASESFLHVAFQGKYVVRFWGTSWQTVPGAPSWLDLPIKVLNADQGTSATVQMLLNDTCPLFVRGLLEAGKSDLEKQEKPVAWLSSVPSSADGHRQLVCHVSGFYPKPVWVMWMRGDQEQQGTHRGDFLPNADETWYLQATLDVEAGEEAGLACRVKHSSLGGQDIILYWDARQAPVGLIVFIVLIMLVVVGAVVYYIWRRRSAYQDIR
T1 sequence (P01887 21-119 partner): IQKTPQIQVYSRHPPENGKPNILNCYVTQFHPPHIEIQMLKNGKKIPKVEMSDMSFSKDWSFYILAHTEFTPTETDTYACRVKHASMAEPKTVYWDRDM
Test: Confocal microscopy of L363 staining in JAWS II cells (surface and permeabilized)
Type: cell-based
Settings: for site of L363 staining in permeabilized cells: 1 hr incubation, co-stained for LAMP-1; for L363 surface staining of intact cells (confocal): 100 nM glycolipid, 1, 4 or 16 hr
Protocol: To visualize the kinetics and sites of mCD1d loading by αGalCer analogs in live cells, we analyzed intact JAWS II cells for surface staining with mAb L363 after 1, 4, or 16 hr of incubation with αGalCer-C26:0 or with either of two Th2 cell-type cytokine-biasing analogs (αGalCer-C20:2 or -C10:0) (Figure 4A). Strong staining of the plasma membrane was seen after 16 hr of incubation in all cases. […] To image earlier steps in glycolipid loading, we permeabilized and fixed cells prior to staining with L363 and with an antibody to the late endosomal and lysosomal marker LAMP-1 (Figure 4A). […] At 4 hr, these complexes began to colocalize with LAMP-1, and only at 16 hr could clear surface staining be seen along with the persistent intracellular staining in LAMP-1^+ compartments (Figure 4A).
Figure 4 Cell Surface versus Intracellular Loading of mCD1d with Different αGalCer Analogs (A) On the left, surface accumulation of CD1d-αGalCer complexes was studied with JAWS II cells harvested after incubation with the indicated glycolipids for 1, 4, or 16 hr and then stained without permeabilization with mAb L363 (red). Cells were then fixed, stained with DAPI for nuclei visualization (blue), and analyzed by confocal microscopy. On the right, the intracellular formation and trafficking of CD1d-αGalCer complexes were analyzed by treatment of JAWS II cells with αGalCer analogs for 1, 4, and 16 hr followed by fixation and permeabilization. The cells were stained for CD1d-αGalCer complexes (L363, red), late endosomes and lysosomes (anti-LAMP-1, green), and nuclei (DAPI, blue). Results are representative of three separate experiments. The scale bar represents 10 μm. (B) Murine iNKT cell hybridoma cells (DN3A4.1-2) were stimulated with αGalCer analogs. As APCs for these stimulations, we used A20 cells transfected with wild-type CD1d (CD1d.WT) or cytoplasmic-tail-deleted CD1d (CD1d.TD). Supernatant concentrations of IL-2 release were determined after 12 hr. IL-2 production over a range of concentrations is shown for αGalCer-C26:0 and two analogs that produce a Th2 cell-type cytokine bias (αGalCer-C20:2 and -PGB1).
JAWS II cells were incubated at 37°C with 100 nM glycolipids for various times as indicated. For surface staining, live cells were harvested and washed extensively with PBS, resuspended in PBS + 1% BSA + 0.1% NaN3, stained on ice with 10 μg/ml Alexa Fluor 647-conjugated mAb L363 for 30 min, and lastly washed extensively and fixed with 4% paraformaldehyde. Cells were washed with PBS and settled onto poly-L-lysine-coated coverslips for 30 min and mounted with ProLong Gold with DAPI mounting medium (Invitrogen). For intracellular staining, JAWS II cells grown on glass coverslips were fixed in 4% paraformaldehyde, permeabilized with 0.05% Triton X-100 for 5 min, and stained with 10 μg/ml Alexa Fluor 647-conjugated L363 and FITC-conjugated anti-LAMP-1. Coverslips were washed and mounted. Confocal images were obtained with a Leica SP2 AOBS confocal microscope (Leica Microsystems). For colocalization of αGalCer/mCD1d complexes with ganglioside GM1-enriched plasma membrane lipid rafts, JAWS II cells were incubated for 18 hr at 37°C in complete medium without or with 100 nM of glycolipids. […] We performed quantitative analysis of colocalization by selecting 20–25 random cells in each group and determining a Pearson correlation coefficient for the distribution of pixel densities for K253 or L363 fluorescence compared to cholera toxin B-specific fluorescence. […]

| Compound | site of L363 staining in permeabilized cells | L363 surface staining of intact cells (confocal) |
| --- | --- | --- |
| CCCCCCCCCCCCCCCCCCCCCCCCCC(=O)NC(COC1OC(CO)C(O)C(O)C1O)C(O)C(O)CCCCCCCCCCCCCC (centres unmarked) [αGalCer-C26:0, reference compound] | observed only in a punctate intracellular distribution |  |
| CCCCCCCCCCCCCCC(O)C(O)C(COC1OC(CO)C(O)C(O)C1O)NC(=O)CCCCCCCCC (centres unmarked) [αGalCer-C10:0] | L363 staining was observed at the plasma membrane | showed L363 staining at earlier time points |
| CCCCCC=CCC=CCCCCCCCCCC(=O)NC(COC1OC(CO)C(O)C(O)C1O)C(O)C(O)CCCCCCCCCCCCCC (centres unmarked) [αGalCer-C20:2] | L363 staining was observed at the plasma membrane | showed L363 staining at earlier time points |
